# Experimental data: ChEMBL document CHEMBL3994583, “Discovery of 4-[(5-arylidene-4-oxothiazolidin-3-yl)methyl]benzoic acid derivatives active as novel potent allosteric inhibitors of protein tyrosine phosphatase 1B: In silico studies and in vitro evaluation as insulinomimetic and anti-inflammatory agents” (Eur J Med Chem, 2017)
# Active and inactive are the calls of the source. The rule behind the calls is not given here.
# What was measured:
# [1] = molecular target: T1, Tyrosine-protein phosphatase non-receptor type 1 (Homo sapiens, UniProt P18031); assay: Inhibition of full length recombinant human PTP1B using pNPP as substrate by spectrophotometric method
# T1 sequence (P18031 whole entry): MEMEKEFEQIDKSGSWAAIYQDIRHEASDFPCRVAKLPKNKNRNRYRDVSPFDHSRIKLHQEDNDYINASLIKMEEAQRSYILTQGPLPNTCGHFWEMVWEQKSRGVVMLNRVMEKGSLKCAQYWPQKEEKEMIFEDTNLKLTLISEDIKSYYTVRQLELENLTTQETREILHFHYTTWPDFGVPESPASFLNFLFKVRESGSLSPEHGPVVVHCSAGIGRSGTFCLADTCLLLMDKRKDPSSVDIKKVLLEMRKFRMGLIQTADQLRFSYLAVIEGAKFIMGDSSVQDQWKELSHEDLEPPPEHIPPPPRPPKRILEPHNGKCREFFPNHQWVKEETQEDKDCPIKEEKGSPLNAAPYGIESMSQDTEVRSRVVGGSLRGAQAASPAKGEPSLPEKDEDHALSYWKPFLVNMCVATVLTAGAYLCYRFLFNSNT
# [2] = molecular target: T1, Tyrosine-protein phosphatase non-receptor type 1; assay: Competitive inhibition of full length recombinant human PTP1B assessed as enzyme-inhibitor complex using pNPP as substrate by double reciprocal plot method
# NCTC-2544 [3] = assay: Cytotoxicity against human NCTC-2544 cells assessed as reduction in cell viability at 10 uM by MTT assay; type: cell-based; settings: nctc-2544, 10 µM
# [4] = molecular target: T2, Tyrosine-protein phosphatase non-receptor type 1 (Homo sapiens) (UniProt P18031); assay: Irreversible inhibition of full length recombinant human PTP1B assessed as recovery of enzyme activity up to 50 uM using pNPP as substrate preincubated for 1 hr followed by substrate addition by spectrophotometric method; set-up: scale not given: the % may be the effect or the level left
# T2 sequence (whole entry): T1 sequence (P18031 whole entry)
# HepG2 = assay: Cytotoxicity against human HepG2 cells assessed as reduction in cell viability at 25 uM after 24 hrs by MTT assay; type: cell-based; settings: hepg2, 24 h
# [5] = molecular target: T2, Tyrosine-protein phosphatase non-receptor type 1 (Homo sapiens); assay: Inhibition of PTP1B in human HepG2 cells assessed as increase in phosphorylation of IRbeta at Tyr1162/1163 residues at 50 uM after 180 mins by Western blot method; type: cell-based
# [6] = molecular target: T2, Tyrosine-protein phosphatase non-receptor type 1 (Homo sapiens); assay: Inhibition of PTP1B in human HepG2 cells assessed as increase in phosphorylation of Akt at Ser473 residue at 50 uM after 30 mins by Western blot method; type: cell-based
# [7] = molecular target: T3, Tyrosine-protein phosphatase non-receptor type 1 (Mus musculus) (UniProt P35821); assay: Inhibition of PTP1B in mouse C2C12 cells assessed as increase in phosphorylation of Akt at Ser473 residue at 50 uM after 30 mins by Western blot method; type: cell-based
# T3 sequence (whole entry): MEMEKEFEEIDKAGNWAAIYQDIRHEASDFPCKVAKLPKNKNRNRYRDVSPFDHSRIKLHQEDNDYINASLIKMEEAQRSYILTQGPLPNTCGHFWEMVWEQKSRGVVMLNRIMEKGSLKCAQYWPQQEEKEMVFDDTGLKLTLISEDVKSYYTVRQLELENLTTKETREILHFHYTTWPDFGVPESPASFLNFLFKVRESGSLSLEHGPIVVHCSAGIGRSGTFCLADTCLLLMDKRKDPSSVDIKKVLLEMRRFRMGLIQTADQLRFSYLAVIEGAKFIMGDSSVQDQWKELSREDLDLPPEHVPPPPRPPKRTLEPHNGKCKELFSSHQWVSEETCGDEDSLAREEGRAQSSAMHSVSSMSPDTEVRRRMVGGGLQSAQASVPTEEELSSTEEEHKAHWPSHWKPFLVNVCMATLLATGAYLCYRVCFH
# C2C12 [8] = assay: Cytotoxicity against mouse C2C12 cells assessed as reduction in cell viability after 24 hrs by MTT assay; type: cell-based; settings: c2c12, 24 h
# [9] = molecular target: T3, Tyrosine-protein phosphatase non-receptor type 1 (Mus musculus); assay: Inhibition of PTP1B in mouse C2C12 cells assessed as increase in phosphorylation of IRbeta at Tyr1162/1163 residues at 50 uM after 30 mins by Western blot method; type: cell-based
# [10] = molecular target: T2, Tyrosine-protein phosphatase non-receptor type 1 (Homo sapiens); assay: Inhibition of PTP1B in human HepG2 cells assessed as increase in phosphorylation of IRbeta at Tyr1162/1163 residues at 50 uM by Western blot method; type: cell-based; settings: TDE = time-dependent effect
# [11] = molecular target: T1, Tyrosine-protein phosphatase non-receptor type 1; assay: Mixed non-competitive inhibition of full length recombinant human PTP1B assessed as enzyme-substrate-inhibitor complex using pNPP as substrate by double reciprocal plot method
# NCTC-2544 [12] = assay: Cytotoxicity against human IFN-gamma and histamine-stimulated NCTC-2544 cells assessed as reduction in cell viability at 10 uM by MTT assay; type: cell-based; settings: nctc-2544, 10 µM
# [13] = molecular target: T2, Tyrosine-protein phosphatase non-receptor type 1 (Homo sapiens); assay: Inhibition of PTP1B in human HepG2 cells assessed as increase in phosphorylation of IRbeta at Tyr1162/1163 residues at 50 uM after 30 mins by Western blot method; type: cell-based
# NCTC-2544 [14] = assay: Anti-inflammatory activity in IFN-gamma and histamine-stimulated human NCTC-2544 cells assessed as reduction in COX-2 protein expression by Western blot method; type: functional, cell-based
# NCTC-2544 [15] = assay: Anti-inflammatory activity in IFN-gamma and histamine-stimulated human NCTC-2544 cells assessed as reduction in ICAM-1 protein expression by Western blot method; type: functional, cell-based
# [16] = molecular target: T2, Tyrosine-protein phosphatase non-receptor type 1 (Homo sapiens); assay: Mixed-type inhibition of full length recombinant human PTP1B assessed as enzyme-substrate-inhibitor complex at 3 to 9 uM using pNPP as substrate by double reciprocal plot method
# [17] = molecular target: T2, Tyrosine-protein phosphatase non-receptor type 1 (Homo sapiens); assay: Reversible inhibition of full length recombinant human PTP1B assessed as recovery of enzyme activity up to 50 uM using pNPP as substrate preincubated for 1 hr followed by substrate addition by spectrophotometric method; set-up: scale not given: the % may be the effect or the level left
# NCTC-2544 [18] = assay: Anti-inflammatory activity in IFN-gamma and histamine-stimulated human NCTC-2544 cells assessed as reduction in iNOS protein expression by Western blot method; type: functional, cell-based
# [19] = molecular target: T2, Tyrosine-protein phosphatase non-receptor type 1 (Homo sapiens); assay: Competitive inhibition of full length recombinant human PTP1B assessed as enzyme-inhibitor complex up to 8 uM using pNPP as substrate by double reciprocal plot method
# C2C12 [20] = assay: Insulinomimetic effect in mouse C2C12 cells assessed as induction of [3H]2-deoxyglucose uptake at 50 uM preincubated for 30 mins followed by [3H]2-deoxyglucose addition measured after 15 mins by liquid scintillation counting method; type: functional, cell-based
# [21] = molecular target: T2, Tyrosine-protein phosphatase non-receptor type 1 (Homo sapiens); assay: Competitive inhibition of full length recombinant human PTP1B assessed as enzyme-inhibitor complex up to 6 uM using pNPP as substrate by double reciprocal plot method
# [22] = molecular target: T2, Tyrosine-protein phosphatase non-receptor type 1 (Homo sapiens); assay: Mixed-type inhibition of full length recombinant human PTP1B assessed as enzyme-substrate-inhibitor complex at 3 to 7.5 uM using pNPP as substrate by double reciprocal plot method
SMILES,IC50 [1] [µM],Activity (NCTC-2544 [3]),Activity [4] [%],Activity (HepG2),inhibition [6],inhibition [7],Activity (C2C12 [8]),inhibition [9],Activity (NCTC-2544 [12]),inhibition [13],Activity (NCTC-2544 [14]),Activity (NCTC-2544 [15]),Activity [17] [%],Activity (NCTC-2544 [18]),further results
O=C(O)c1ccc(CN2C(=O)/C(=C/c3ccc(Oc4ccccc4)cc3)S/C2=N\c2ccc(F)cc2)cc1,5.1,Toxic,10 to 50,Non-Toxic,Active,Active,Non-Toxic,Active,,,,,,,Ki [2]: 9.9 µM; inhibition [5]: inactive; inhibition [10]: Tde
O=C(O)c1ccc(CN2C(=O)/C(=C/c3ccc(OCCc4ccccc4)cc3)S/C2=N\c2ccc(F)cc2)cc1,1.5,Toxic,10 to 50,Non-Toxic,,inactive,Non-Toxic,Active,,,,,,,Ki [11]: 1000 nM
O=C(O)c1ccc(CN2C(=O)/C(=C/c3ccc(Oc4ccccc4)cc3)SC2=S)cc1,10.6,Non-Toxic,,Non-Toxic,,,Non-Toxic,,Non-Toxic,inactive,inactive,Active,75 to 100,Active,inhibition [16]: Active
O=C(O)c1ccc(CN2C(=O)/C(=C/c3ccc(OCc4ccccc4)cc3)S/C2=N\c2ccc(F)cc2)cc1,1.9,Toxic,,Non-Toxic,Active,inactive,Non-Toxic,Active,,Active,,,75 to 100,,Ki [2]: 1.4 µM
O=C(O)c1ccc(CN2C(=O)/C(=C/c3cccc(Oc4ccccc4)c3)SC2=S)cc1,7.1,Non-Toxic,,Non-Toxic,,,Non-Toxic,,Non-Toxic,inactive,Active,Active,75 to 100,Active,inhibition [16]: Active
O=C(O)c1ccc(CN2C(=O)/C(=C/c3cccc(OCCc4ccccc4)c3)S/C2=N\c2ccc(F)cc2)cc1,14.5,Toxic,10 to 50,Non-Toxic,,inactive,Non-Toxic,Active,,,,,,,Ki [11]: 2300 nM
O=C(O)c1ccc(CN2C(=O)/C(=C/c3ccc(OCCc4ccccc4)cc3)SC2=S)cc1,3.5,Toxic,,Non-Toxic,,,Non-Toxic,,Toxic,inactive,Active,,75 to 100,Active,inhibition [19]: Active
O=C(O)c1ccc(CN2C(=O)/C(=C/c3cccc(OCc4ccccc4)c3)SC2=S)cc1,5.7,Non-Toxic,,Non-Toxic,,,Non-Toxic,,Non-Toxic,inactive,Active,Active,75 to 100,Active,inhibition [19]: Active
O=C(O)c1ccc(CN2C(=O)/C(=C/c3cccc(Oc4ccccc4)c3)S/C2=N\c2ccc(F)cc2)cc1,10,Non-Toxic,10 to 50,Non-Toxic,Active,Active,Non-Toxic,Active,Non-Toxic,Active,Active,inactive,,Active,Ki [2]: 4.4 µM; Activity (C2C12 [20]): Active
O=C(O)c1ccc(CN2C(=O)/C(=C/c3cccc(OCc4ccccc4)c3)S/C2=N\c2ccc(F)cc2)cc1,4.2,Toxic,10 to 50,Non-Toxic,Active,inactive,Non-Toxic,Active,,Active,,,,,Ki [11]: 1500 nM
O=C(O)c1ccc(CN2C(=O)/C(=C/c3cccc(OCCc4ccccc4)c3)SC2=S)cc1,1.9,Toxic,,Non-Toxic,,,Non-Toxic,,Toxic,inactive,Active,Active,75 to 100,Active,inhibition [21]: Active
O=C(O)c1ccc(CN2C(=O)/C(=C/c3ccc(OCc4ccccc4)cc3)SC2=S)cc1,5,Non-Toxic,,Non-Toxic,,,Non-Toxic,,Non-Toxic,inactive,Active,Active,75 to 100,Active,inhibition [22]: Active
